From ChEMBL document CHEMBL4052689, “Discovery and optimization of 3-(4-aryl/heteroarylsulfonyl)piperazin-1-yl)-6-(piperidin-1-yl)pyridazines as novel, CNS penetrant pan-muscarinic antagonists” (Bioorg Med Chem Lett, 2017)

Experiments:
Plasma [1] = assay: Protein binding in rat plasma; assay type: ADME, cell-free
[2] = molecular target: T1, Muscarinic acetylcholine receptor M4 (Homo sapiens, UniProt P08173); assay: Antagonist activity at human recombinant muscarinic M4 receptor expressed in CHO cells co-transfected with Gqi5 in presence of EC80 acetylcholine by calcium mobilization assay; assay type: functional, cell-based
T1 sequence (P08173 whole entry): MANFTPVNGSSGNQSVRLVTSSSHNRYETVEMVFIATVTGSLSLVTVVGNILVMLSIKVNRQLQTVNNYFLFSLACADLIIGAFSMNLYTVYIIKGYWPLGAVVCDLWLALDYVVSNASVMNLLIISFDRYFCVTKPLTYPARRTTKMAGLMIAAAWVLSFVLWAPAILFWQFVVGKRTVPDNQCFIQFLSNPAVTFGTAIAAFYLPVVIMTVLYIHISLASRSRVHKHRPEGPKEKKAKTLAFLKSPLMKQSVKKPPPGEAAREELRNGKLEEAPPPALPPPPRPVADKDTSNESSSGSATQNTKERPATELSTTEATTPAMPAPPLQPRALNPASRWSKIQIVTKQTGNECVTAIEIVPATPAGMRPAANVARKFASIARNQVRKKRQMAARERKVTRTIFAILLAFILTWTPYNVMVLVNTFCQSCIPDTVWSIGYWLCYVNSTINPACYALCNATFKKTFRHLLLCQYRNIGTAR

Plasma [3] = assay: Protein binding in human plasma; assay type: ADME, cell-free
[4] = molecular target: T2, Muscarinic acetylcholine receptor M4 (Homo sapiens) (UniProt P08173); assay: Antagonist activity at human recombinant muscarinic M4 receptor expressed in CHO cells co-transfected with Gqi5 assessed as acetylcholine-induced response in presence of EC80 acetylcholine by calcium mobilization assay relative to untreated control; assay type: functional, cell-based; design: scale not given: the % may be the effect or the level left
T2 sequence (whole entry): T1 sequence (P08173 whole entry)

[5] = molecular target: T1, Muscarinic acetylcholine receptor M4; assay: Antagonist activity at human muscarinic M4 receptor

| PPB (Plasma [1]) | IC50 ([2]; read-out: IC50) [nM] | PPB (Plasma [3]) | Activity [4] [%] | IC50 ([2]; read-out: pIC50 (converted)) [nM] | IC50 [5] [nM] | Structure (SMILES) |
| --- | --- | --- | --- | --- | --- | --- |
|  | 430 |  | 8 | 407 |  | Cc1noc(C)c1S(=O)(=O)N1CCN(c2ccc(N3CCCCCC3)nn2)CC1 |
|  | 1270 |  | 6 |  |  | O=S(=O)(c1ccccc1Cl)N1CCN(c2ccc(N3CCCCCC3)nn2)CC1 |
|  | > 10000 |  |  |  |  | C[C@H]1CCCCN1c1cnc(N2CCN(S(=O)(=O)c3ccc4c(c3)OCO4)CC2)cn1 |
| Active | 520 | Active | 4 |  |  | C[C@H]1CCCCN1c1ccc(N2CCN(S(=O)(=O)c3ccccc3C(F)(F)F)CC2)nn1 |
|  | 470 |  | 14 | 457 |  | CC1(C)CCCN(c2ccc(N3CCN(S(=O)(=O)c4ccc5c(c4)OCO5)CC3)nn2)C1 |
|  | 290 |  | 20 |  |  | O=S(=O)(c1ccc2c(c1)OCO2)N1CCN(c2ccc(N3CCCCCC3)nn2)CC1 |
| Active | 2570 | Active | 8 |  |  | C[C@H]1CCCCN1c1ccc(N2CCN(S(=O)(=O)c3ccccc3)CC2)nn1 |
|  | 6080 |  | 12 | 5750 |  | C[C@@H]1CCCCN1c1ccc(N2CCN(S(=O)(=O)c3ccccc3Cl)CC2)nn1 |
| Active | 2800 | Active | 46 | 2630 |  | COc1ccc(S(=O)(=O)N2CCN(c3ccc(N4CCCC[C@@H]4C)nn3)CC2)cc1OC |
| Active | 2340 | Active | 30 | 2290 |  | C[C@H]1CCCCN1c1ccc(N2CCN(S(=O)(=O)c3ccc(Cl)cc3)CC2)nn1 |
|  | 3310 |  | 10 |  |  | Cc1noc(C)c1S(=O)(=O)N1CCN(c2ccc(N3CCC[C@@H]3C)nn2)CC1 |
|  | 2730 |  | 14 | 2570 |  | C[C@H]1CCCN1c1ccc(N2CCN(S(=O)(=O)c3ccc4c(c3)OCO4)CC2)nn1 |
|  | 5580 |  | 12 | 5370 |  | O=S(=O)(c1ccccc1Cl)N1CCN(c2ccc(N3CCCCC3)nn2)CC1 |

Further lines, the compound ahead of its results:

| Structure (SMILES) | PPB (Plasma [1]) | IC50 ([2]; read-out: IC50) [nM] | PPB (Plasma [3]) | Activity [4] [%] | IC50 ([2]; read-out: pIC50 (converted)) [nM] | IC50 [5] [nM] |
| --- | --- | --- | --- | --- | --- | --- |
| C[C@H]1CCCCN1c1ccc(N2CCN(S(=O)(=O)C3CCCCC3)CC2)nn1 | Active | 4020 | Active | 51 |  |  |
| C[C@H]1COCCN1c1ccc(N2CCN(S(=O)(=O)c3ccc4c(c3)OCO4)CC2)nn1 |  | > 10000 |  | 63 |  |  |
| COc1ccccc1S(=O)(=O)N1CCN(c2ccc(N3CCCC[C@@H]3C)nn2)CC1 | Active | 2380 | Active | 11 |  |  |
| O=C1CCCCN1c1ccc(N2CCN(S(=O)(=O)c3ccccc3Cl)CC2)nn1 |  | > 10000 |  | 51 |  |  |
| C[C@H]1COCCN1c1ccc(N2CCN(S(=O)(=O)c3ccccc3Cl)CC2)nn1 |  | > 10000 |  | 56 |  |  |
| C[C@H]1CCCCN1c1ccc(N2CCN(S(=O)(=O)c3ccc4ncccc4c3)CC2)nn1 | Active | 1170 | Active | 7 | 1120 |  |
| C[C@H]1CCCCN1c1ccc(N2CCN(S(=O)(=O)c3ccc4c(c3)OCO4)CC2)nc1 |  | 1350 |  |  |  |  |
| CC1CCCCN1c1ccc(N2CCN(S(=O)(=O)c3ccccc3Cl)CC2)nn1 (racemic) |  | 530 |  | 9.2 |  | 1000 |
| C[C@H]1CCCCN1c1ccc(N2CCN(S(=O)(=O)c3nccn3C)CC2)nn1 | Active | 1600 | Active | 8 |  |  |
| C[C@H]1CCCCN1c1ccc(N2CCN(S(=O)(=O)c3ccc4c(c3)OCO4)CC2)cn1 |  | > 10000 |  |  |  |  |
| Cc1noc(C)c1S(=O)(=O)N1CCN(c2ccc(N3CCCC[C@@H]3C)nn2)CC1 | Active | 90 | Active | 6 |  |  |
| Cc1noc(C)c1S(=O)(=O)N1CCN(c2ccc(N3CCOC[C@@H]3C)nn2)CC1 |  | > 10000 |  | 66 |  |  |
| O=S(=O)(c1ccc2c(c1)OCO2)N1CCN(c2ccc(N3CCCCC3)nn2)CC1 |  | 730 |  | 55 | 661 |  |
| C[C@H]1CCCN1c1ccc(N2CCN(S(=O)(=O)c3ccccc3Cl)CC2)nn1 |  | 2900 |  | 9 |  |  |
| C[C@H]1CCCCN1c1ccc(N2CCN(S(=O)(=O)c3cccc(Cl)c3)CC2)nn1 | Active | 760 | Active | 22 | 708 |  |
| C[C@H]1CCCCN1c1ccc(N2CCN(S(=O)(=O)c3ccc4c(c3)OCO4)CC2)cc1 |  | 1330 |  |  |  |  |
| C[C@H]1CCCCN1c1ccc(N2CCN(S(=O)(=O)c3ccc4c(c3)OCO4)CC2)nn1 | Active | 200 | Active | 9 |  |  |
| CC1(C)CCCN(c2ccc(N3CCN(S(=O)(=O)c4ccccc4Cl)CC3)nn2)C1 |  | 940 |  | 5 |  |  |
